Results reported in patent US10294202B2, “Pyrrolidinones as herbicides” (FMC Corporation, priority 2013, dated 2019).

Experiments:
[1] = system: lambsquarters; test: Test D pre-/postemergence herbicide test; type: in vivo, Chenopodium album; settings: for Plant response rating, Lambsquarters: scale 0 to 100 (0 no effect, 100 complete control); for Plant response rating: Lambsquarters, scale 0 to 100
Source text: (§1) Seeds of plant species selected from bluegrass (annual bluegrass, Poa annua), blackgrass (Alopecurus myosuroides), canarygrass (littleseed canarygrass, Phalaris minor), chickweed (common chickweed, Stellaria media), galium (catchweed bedstraw, Galium aparine), bromegrass, downy (downy bromegrass, Bromus tectorum), field poppy (Papaver rhoeas), field violet (Viola arvensis), foxtail, green (green foxtail, Setaria viridis), deadnettle (henbit deadnettle, Lamium amplexicaule), ryegrass, Italian (Italian ryegrass, Lolium multiflorum), kochia (Kochia scoparia), lambsquarters (Chenopodium album), oilseed rape (Brassica napus), pigweed (Amaranthus retroflexus), chamomile (scentless chamomile, Matricaria inodora), Russian thistle (Salsola kali), speedwell (bird's-eye speedwell, Veronica persica), barley, spring (spring barley, Hordeum vulgare), wheat, spring (spring wheat, Triticum aestivum), buckwheat, wild (wild buckwheat, Polygonum convolvulus), mustard, wild (wild mustard, Sinapis arvensis), oat, wild (wild oat, Avena fatua), radish, wild (wild radish, Raphanus raphanistrum), […]), barley, winter (winter barley, Hordeum vulgare), and wheat, winter (winter wheat, Triticum aestivum) were planted into a silt loam soil and treated preemergence with test chemicals formulated in a non-phytotoxic solvent mixture which included a surfactant. At the same time, these species were planted in pots containing Redi-Earth® planting medium (Scotts Company, 14111 Scottslawn Road, Marysville, Ohio 43041) comprising spaghnum peat moss, vermiculite, wetting agent and starter nutrients and treated with postemergence applications of the test chemicals formulated in the same manner. Plants ranged in height from 2 to 18 cm (1- to 4-leaf stage). Treated plants and controls were maintained in a controlled growth environment for 7 to 21 days after which time all species were compared to controls and visually evaluated. Plant response ratings, summarized in Table D, are based on a scale of 0 to 100 where 0 is no effect and 100 is complete control. A dash (-) response means no test result.

[2] = system: deadnettle; test: Test D pre-/postemergence herbicide test; type: in vivo, Lamium amplexicaule; settings: for Plant response rating, Deadnettle: scale 0 to 100 (0 no effect, 100 complete control); for Plant response rating: Deadnettle, scale 0 to 100
Source text: as §1

[3] = system: nutsedge, yellow; test: Test E preemergence herbicide test; type: in vivo, Cyperus esculentus; design: key: 0 = no effect, 100 = complete control
Source text: (§2) Seeds of plant species selected from corn (Zea mays), soybean (Glycine max), velvetleaf (Abutilon theophrasti), lambsquarters (Chenopodium album), wild poinsettia (Euphorbia heterophylla), pigweed, palmer (palmer pigweed, Amaranthus palmeri), waterhemp (common waterhemp, Amaranthus rudis), surinam grass (Brachiaria decumbens), crabgrass, large (large crabgrass, Digitaria sanguinalis), crabgrass, Brazil (Brazilian crabgrass, Digitaria horizontalis), panicum, fall (fall panicum, Panicum dichotomiflorum), foxtail, giant (giant foxtail, Setaria faberii), foxtail, green (green foxtail, Setaria viridis), goosegrass (Eleusine indica), johnsongrass (Sorghum halepense), ragweed (common ragweed, Ambrosia elatior), barnyardgrass (Echinochloa crus-galli), sandbur (southern sandbur, Cenchrus echinatus), arrowleaf […] rhombifolia), ryegrass, Italian (Italian ryegrass, Lolium multiflorum), dayflower, VA (Virginia dayflower, Commelina virginica), field bindweed (Convolvulus arvensis), morningglory (Ipomoea coccinea), nightshade (eastern black nightshade, Solanum ptycanthum), kochia (Kochia scoparia), nutsedge, yellow (yellow nutsedge, Cyperus esculentus), cocklebur (common cocklebur, Xanthium strumarium), smartweed (ladysthumb smartweed, Polygonum Persicaria) and beggarticks (hairy beggarticks, Bidens pilosa), were planted into a silt loam soil and treated preemergence with test chemicals formulated in a non-phytotoxic solvent mixture which included a surfactant. Treated plants and controls were maintained in a greenhouse for 21 days, after which time all species were compared to controls and visually evaluated. Plant response ratings, summarized in Table E, are based on a scale of 0 to 100 where 0 is no effect and 100 is complete control. A dash (-) response means no test result.

[4] = system: arrowleaf sida; test: Test E preemergence herbicide test; type: in vivo, Sida rhombifolia; design: key: 0 = no effect, 100 = complete control
Source text: as §2

[5] = system: corn; test: Test E preemergence herbicide test; type: in vivo, Zea mays; design: key: 0 = no effect, 100 = complete control
Source text: as §2

Compound	Plant response rating, Lambsquarters ([1]; Preemergence, 62 g ai/ha)	Plant response rating, Lambsquarters ([1]; Preemergence, 31 g ai/ha)	Plant response rating ([1]; Preemergence, 125 g ai/ha)	Plant response rating ([1]; Preemergence, 250 g ai/ha)	Plant response rating, Deadnettle ([2]; Preemergence, 62 g ai/ha)	Plant response rating, Deadnettle ([2]; Preemergence, 31 g ai/ha)	Plant response rating ([2]; Preemergence, 125 g ai/ha)	Plant response rating ([2]; Preemergence, 250 g ai/ha)	Plant response rating, Nutsedge, Yellow ([3]; 31 g ai/ha)	Plant response rating, Nutsedge, Yellow ([3]; 62 g ai/ha)	Plant response rating, Nutsedge, Yellow ([3]; 125 g ai/ha)	Plant response rating, Nutsedge, Yellow ([3]; 250 g ai/ha)	Plant response rating ([1]; Postemergence, 31 g ai/ha)	Plant response rating ([1]; Postemergence, 62 g ai/ha)	Plant response rating ([1]; Postemergence, 125 g ai/ha)	Plant response rating ([1]; Postemergence, 250 g ai/ha)	Plant response rating ([2]; Postemergence, 31 g ai/ha)	Plant response rating ([2]; Postemergence, 62 g ai/ha)	Plant response rating ([2]; Postemergence, 125 g ai/ha)	Plant response rating ([2]; Postemergence, 250 g ai/ha)	further results
O=C1NCC(c2ccc(F)c(C(F)(F)F)c2)C1C(=O)Nc1cccc(F)c1F (racemic) [Compound 77]	85	85	90	90	65	15	60	75	–	–	–	–	–	–	–	–	–	–	–	–	–
O=C1NCC(c2ccc(OC(F)F)cc2)C1C(=O)Nc1cccc(F)c1F (racemic) [Compound 350]	–	–	–	–	–	–	–	–	0	0	0	15	–	–	–	–	–	–	–	–	Plant response rating, Arrowleaf Sida ([4]; 31 g ai/ha): 0; Plant response rating, Arrowleaf Sida ([4]; 62 g ai/ha): 0; Plant response rating, Arrowleaf Sida ([4]; 125 g ai/ha): 20; Plant response rating, Arrowleaf Sida ([4]; 250 g ai/ha): 50; Plant response rating, Corn ([5]; 31 g ai/ha): 0; Plant response rating, Corn ([5]; 62 g ai/ha): 0; Plant response rating, Corn ([5]; 125 g ai/ha): 0; Plant response rating, Corn ([5]; 250 g ai/ha): 0
O=C1NCC(c2ccc(C(F)(F)F)cc2)C1C(=O)Nc1ccccc1F (stereo not drawn) [Compound 231]	80	45	–	90	75	35	–	85	–	–	–	–	55	50	70	75	35	70	35	70	Plant response rating, Lambsquarters ([1]; Preemergence, 125 g ai/ha): 90; Plant response rating, Deadnettle ([2]; Preemergence, 125 g ai/ha): 60
O=C1NCC(c2ccc(C(F)(F)F)cc2)C1C(=O)Nc1cccc(F)c1F (stereo not drawn) [Compound 80, N-(2,3-difluorophenyl)-2-oxo-4-[4-(trifluoromethyl)phenyl]-3-pyrrolidinecarboxamide]	80	85	90	90	0	0	65	70	0	0	0	0	45	45	40	35	70	60	70	40	Plant response rating, Nutsedge, Yellow ([3]; 16 g ai/ha): 0; Plant response rating, Arrowleaf Sida ([4]; 16 g ai/ha): 0; Plant response rating, Arrowleaf Sida ([4]; 31 g ai/ha): 0; Plant response rating, Arrowleaf Sida ([4]; 62 g ai/ha): 0; Plant response rating, Arrowleaf Sida ([4]; 125 g ai/ha): 0; Plant response rating, Arrowleaf Sida ([4]; 250 g ai/ha): 10; Plant response rating, Corn ([5]; 16 g ai/ha): 0; Plant response rating, Corn ([5]; 31 g ai/ha): 0; Plant response rating, Corn ([5]; 62 g ai/ha): 0; Plant response rating, Corn ([5]; 125 g ai/ha): 0; Plant response rating, Corn ([5]; 250 g ai/ha): 30
O=C1NCC(c2ccc(Cl)c(F)c2)C1C(=O)Nc1cccc(F)c1F (stereo not drawn) [Compound 52]	0	0	20	20	0	0	0	30	–	–	–	–	0	0	30	30	0	0	20	25	Plant response rating ([1]; Postemergence, 16 g ai/ha): 0; Plant response rating, Lambsquarters ([1]; Preemergence, 16 g ai/ha): 0; Plant response rating ([2]; Postemergence, 16 g ai/ha): 0; Plant response rating, Deadnettle ([2]; Preemergence, 16 g ai/ha): 0
O=C1NCC(c2ccc(F)c(F)c2)C1C(=O)Nc1ccccc1C(F)(F)F (racemic) [Compound 6]	0	0	0	0	0	0	40	40	–	–	–	–	10	20	20	30	0	0	10	10	Plant response rating ([1]; Postemergence, 16 g ai/ha): 0; Plant response rating, Lambsquarters ([1]; Preemergence, 16 g ai/ha): 0; Plant response rating ([2]; Postemergence, 16 g ai/ha): 0; Plant response rating, Deadnettle ([2]; Preemergence, 16 g ai/ha): 0
O=C1NCC(c2cc(F)c(F)cc2F)C1C(=O)Nc1cccc(F)c1F (stereo not drawn) [Compound 50]	0	0	0	–	100	50	100	–	–	–	–	–	5	5	20	–	0	0	0	–	Plant response rating ([1]; Postemergence, 16 g ai/ha): 5; Plant response rating, Lambsquarters ([1]; Preemergence, 16 g ai/ha): 0; Plant response rating ([2]; Postemergence, 16 g ai/ha): 0; Plant response rating, Deadnettle ([2]; Preemergence, 16 g ai/ha): 50
O=C1NCC(c2ccc(Cl)c(Cl)c2)C1C(=O)Nc1ccccc1F (racemic) [Compound 14]	–	–	–	–	–	–	–	–	0	0	0	0	–	–	–	–	–	–	–	–	Plant response rating, Nutsedge, Yellow ([3]; 16 g ai/ha): 0; Plant response rating, Arrowleaf Sida ([4]; 16 g ai/ha): 0; Plant response rating, Arrowleaf Sida ([4]; 31 g ai/ha): 0; Plant response rating, Arrowleaf Sida ([4]; 62 g ai/ha): 0; Plant response rating, Arrowleaf Sida ([4]; 125 g ai/ha): 0; Plant response rating, Arrowleaf Sida ([4]; 250 g ai/ha): 0; Plant response rating, Corn ([5]; 16 g ai/ha): 0; Plant response rating, Corn ([5]; 31 g ai/ha): 0; Plant response rating, Corn ([5]; 62 g ai/ha): 0; Plant response rating, Corn ([5]; 125 g ai/ha): 0; Plant response rating, Corn ([5]; 250 g ai/ha): 0
